Assays:
Type in all cases: functional
Oryctolagus cuniculus [1] = experiment: Neuromuscular blocking in rabbit model of propofol-induced anesthesia assessed as maximal blockade at 272.7 nmol/kg by train-of-four response method relative to control
Oryctolagus cuniculus [2] = experiment: Neuromuscular blocking in rabbit model of propofol-induced anesthesia assessed as effective blocking time by measuring duration from administration to 25 percent recovery at 272.7 nmol/kg by train-of-four response method
Oryctolagus cuniculus [3] = experiment: Neuromuscular blocking in rabbit model of propofol-induced anesthesia assessed as onset time at 272.7 nmol/kg by train-of-four response method
Oryctolagus cuniculus [4] = experiment: Neuromuscular blocking in rabbit model of propofol-induced anesthesia assessed as time duration of 25 to 90 percent recovery indices at 272.7 nmol/kg by train-of-four response method
Oryctolagus cuniculus [5] = experiment: Neuromuscular blocking in rabbit model of propofol-induced anesthesia assessed as duration of time for maximal blockade at 272.7 nmol/kg by train-of-four response method
Oryctolagus cuniculus [6] = experiment: Neuromuscular blocking in rabbit model of propofol-induced anesthesia assessed as time duration of 25 to 75 percent recovery indices at 272.7 nmol/kg by train-of-four response method
Oryctolagus cuniculus [7] = experiment: Neuromuscular blocking in rabbit model of propofol-induced anesthesia assessed as time duration of 25 to 75 percent recovery indices at 27.27 nmol/kg by train-of-four response method
Oryctolagus cuniculus [8] = experiment: Neuromuscular blocking in rabbit model of propofol-induced anesthesia assessed as onset time at 27.27 nmol/kg by train-of-four response method
Oryctolagus cuniculus [9] = experiment: Neuromuscular blocking in rabbit model of propofol-induced anesthesia assessed as effective blocking time by measuring duration from administration to 25 percent recovery at 27.27 nmol/kg by train-of-four response method
Oryctolagus cuniculus [10] = experiment: Neuromuscular blocking in rabbit model of propofol-induced anesthesia assessed as maximal blockade at 27.27 nmol/kg by train-of-four response method relative to control
Oryctolagus cuniculus [11] = experiment: Neuromuscular blocking in rabbit model of propofol-induced anesthesia assessed as time duration of 25 to 90 percent recovery indices at 27.27 nmol/kg by train-of-four response method
Oryctolagus cuniculus [12] = experiment: Neuromuscular blocking in rabbit model of propofol-induced anesthesia assessed as duration of time for maximal blockade at 27.27 nmol/kg by train-of-four response method

Row | SMILES | Emax at 0.2727 µmol/kg (Oryctolagus cuniculus [1]) [%] | Time (Oryctolagus cuniculus [2]) [min] | Time (Oryctolagus cuniculus [3]) [min] | Time (Oryctolagus cuniculus [4]) [min] | Time (Oryctolagus cuniculus [5]) [min] | Time (Oryctolagus cuniculus [6]) [min] | Time (Oryctolagus cuniculus [7]) [min] | Time (Oryctolagus cuniculus [8]) [min] | Time (Oryctolagus cuniculus [9]) [min] | Emax at 0.02727 µmol/kg (Oryctolagus cuniculus [10]) [%] | Time (Oryctolagus cuniculus [11]) [min] | Time (Oryctolagus cuniculus [12]) [min]
1 | C=CC[N+]1(CCCOC(=O)CC/C=C/CCC(=O)OCCC[N+]2(CC=C)CCc3cc(OC)c(OC)cc3[C@H]2Cc2cc(OC)c(OC)c(OC)c2)CCc2cc(OC)c(OC)cc2[C@H]1Cc1cc(OC)c(OC)c(OC)c1 (some centres not stated) | 92 |  |  |  |  |  |  |  |  |  |  | 
2 | COc1cc2c(cc1OC)[C@@H](Cc1cc(OC)c(OC)c(OC)c1)[N+](C)(CCC(=O)OCCCCCCOC(=O)CC[N+]1(C)CCc3cc(OC)c(OC)cc3[C@H]1Cc1cc(OC)c(OC)c(OC)c1)CC2.O=S(=O)([O-])c1ccccc1.O=S(=O)([O-])c1ccccc1 (some centres not stated) | 100 | 49.83 | 1 | 12.17 | 44.92 | 9.92 |  |  |  |  |  | 
3 | CC[N+]1(CCCOC(=O)CC/C=C/CCC(=O)OCCC[N+]2(CC)CCc3cc(OC)c(OC)cc3[C@H]2Cc2cc(OC)c(OC)c(OC)c2)CCc2cc(OC)c(OC)cc2[C@H]1Cc1cc(OC)c(OC)c(OC)c1.[Cl-].[Cl-] (some centres not stated) | 100 | 14 | 0.75 | 9.67 | 11.75 | 6.42 |  |  |  |  |  | 
4 | COc1cc2c(cc1OC)[C@@H](Cc1cc(OC)c(OC)c(OC)c1)[N@+](CCCOC(=O)CC/C=C/CCC(=O)OCCC[N@@+]1(CC3CC3)CCc3cc(OC)c(OC)cc3[C@H]1Cc1cc(OC)c(OC)c(OC)c1)(CC1CC1)CC2.[Cl-].[Cl-] | 45 |  | 2 | 7.87 | 2.5 | 5 |  |  |  |  |  | 
5 | COc1cc2c(cc1OC)[C@@H](Cc1cc(OC)c(OC)c(OC)c1)[N@@+](C)(CCCOC(=O)CC/C=C/CCC(=O)OCCC[N@@+]1(C)CCc3cc(OC)c(OC)cc3[C@H]1Cc1cc(OC)c(OC)c(OC)c1)CC2 | 0 |  |  |  |  |  |  |  |  |  |  | 
6 | COc1cc2c(cc1OC)[C@@H](Cc1cc(OC)c(OC)c(OC)c1)[N+](C)(CCC(=O)OCC#CCOC(=O)CC[N+]1(C)CCc3cc(OC)c(OC)cc3[C@H]1Cc1cc(OC)c(OC)c(OC)c1)CC2 (some centres not stated) | 85 |  |  |  |  |  |  |  |  |  |  | 
7 | COc1cc2c(cc1OC)[C@@H](Cc1cc(OC)c(OC)c(OC)c1)[N+](C)(CCCOC(=O)CCCC(=O)OCCC[N+]1(C)CCc3cc(OC)c(OC)cc3[C@H]1Cc1cc(OC)c(OC)c(OC)c1)CC2.[Cl-].[Cl-] (some centres not stated) | 100 | 73.08 | 0.75 | 12 | 66.5 | 7.67 | 7.75 | 2.58 | 11.67 | 100 | 11.77 | 8.08
8 | COc1cc2c(cc1OC)[C@@H](Cc1cc(OC)c(OC)c(OC)c1)[N+](C)(CCC(=O)OCCCCOC(=O)CC[N+]1(C)CCc3cc(OC)c(OC)cc3[C@H]1Cc1cc(OC)c(OC)c(OC)c1)CC2.O=S(=O)([O-])c1ccccc1.O=S(=O)([O-])c1ccccc1 (some centres not stated) | 100 | 23.08 | 1.25 | 13.67 | 18.58 | 8.17 |  |  |  |  |  | 
9 | COc1cc2c(cc1OC)[C@@H](Cc1cc(OC)c(OC)c(OC)c1)[N+](C)(CCC(=O)OCC(F)(F)COC(=O)CC[N+]1(C)CCc3cc(OC)c(OC)cc3[C@H]1Cc1cc(OC)c(OC)c(OC)c1)CC2 (some centres not stated) | 0 |  |  |  |  |  |  |  |  |  |  | 
10 | COc1cc2c(cc1OC)[C@@H](Cc1cc(OC)c(OC)c(OC)c1)[N+](C)(CCCOC(=O)CCCCC(=O)OCCC[N+]1(C)CCc3cc(OC)c(OC)cc3[C@H]1Cc1cc(OC)c(OC)c(OC)c1)CC2.[Cl-].[Cl-] (some centres not stated) | 100 | 38 | 0.63 | 8.13 | 35 | 6.38 | 9.67 | 2.75 | 5.17 | 100 | 11.67 | 2
11 | COc1cc2c(cc1OC)[C@@H](Cc1cc(OC)c(OC)c(OC)c1)[N+](C)(CCC(=O)OCC#CC#CCOC(=O)CC[N+]1(C)CCc3cc(OC)c(OC)cc3[C@H]1Cc1cc(OC)c(OC)c(OC)c1)CC2.O=S(=O)([O-])c1ccccc1.O=S(=O)([O-])c1ccccc1 (some centres not stated) | 100 | 5.83 | 1.42 | 12 | 4.75 | 6.92 |  |  |  |  |  | 
12 | COc1cc2c(cc1OC)[C@@H](Cc1cc(OC)c(OC)c(OC)c1)[N+](C)(CCCOC(=O)Cc1ccc(CC(=O)OCCC[N+]3(C)CCc4cc(OC)c(OC)cc4[C@H]3Cc3cc(OC)c(OC)c(OC)c3)cc1)CC2.[Cl-].[Cl-] (some centres not stated) | 100 | 18.08 | 0.92 | 10.83 | 14.83 | 8 |  |  |  |  |  | 
13 | COc1cc2c(cc1OC)[C@@H](Cc1cc(OC)c(OC)c(OC)c1)[N+](CCCOC(=O)CC/C=C/CCC(=O)OCCC[N+]1(CC3CC3)CCc3cc(OC)c(OC)cc3[C@H]1Cc1cc(OC)c(OC)c(OC)c1)(CC1CC1)CC2.[Cl-].[Cl-] (some centres not stated) | 100 | 5.17 | 1.25 | 9.58 | 3.67 | 6.83 |  |  |  |  |  | 
14 | COc1cc2c(cc1OC)[C@@H](Cc1cc(OC)c(OC)c(OC)c1)[N+](C)(CCC(=O)OC/C(Br)=C(\Br)COC(=O)CC[N+]1(C)CCc3cc(OC)c(OC)cc3[C@H]1Cc1cc(OC)c(OC)c(OC)c1)CC2.O=S(=O)([O-])c1ccccc1.O=S(=O)([O-])c1ccccc1 (some centres not stated) | 100 | 9.75 | 1 | 10.92 | 8.75 | 6.83 |  |  |  |  |  | 
15 | CC[N@+]1(CCCOC(=O)CC/C=C/CCC(=O)OCCC[N@@+]2(CC)CCc3cc(OC)c(OC)cc3[C@H]2Cc2cc(OC)c(OC)c(OC)c2)CCc2cc(OC)c(OC)cc2[C@H]1Cc1cc(OC)c(OC)c(OC)c1.[Cl-].[Cl-] | 100 | 14.67 | 1.08 | 15.25 | 11.58 | 10.58 |  |  |  |  |  | 
16 | C=CC[N@+]1(CCCOC(=O)CC/C=C/CCC(=O)OCCC[N@@+]2(CC=C)CCc3cc(OC)c(OC)cc3[C@H]2Cc2cc(OC)c(OC)c(OC)c2)CCc2cc(OC)c(OC)cc2[C@H]1Cc1cc(OC)c(OC)c(OC)c1.[Cl-].[Cl-] | 100 | 6.92 | 1.42 | 21.83 | 4.75 | 13.25 |  |  |  |  |  | 
17 | COc1cc2c(cc1OC)[C@@H](Cc1cc(OC)c(OC)c(OC)c1)[N+](C)(CCCOC(=O)c1ccccc1-c1ccccc1C(=O)OCCC[N+]1(C)CCc3cc(OC)c(OC)cc3[C@H]1Cc1cc(OC)c(OC)c(OC)c1)CC2 (some centres not stated) | 0 |  |  |  |  |  |  |  |  |  |  | 
18 | COc1cc2c(cc1OC)[C@@H](Cc1cc(OC)c(OC)c(OC)c1)[N@+](CCCOC(=O)CC/C=C/CCC(=O)OCCC[N@@+]1(CC3CCC3)CCc3cc(OC)c(OC)cc3[C@H]1Cc1cc(OC)c(OC)c(OC)c1)(CC1CCC1)CC2.[Cl-].[Cl-] | 100 | 15.38 | 2 | 15.17 | 8.5 | 8.92 |  |  |  |  |  | 
19 | COc1cc2c(cc1OC)[C@@H](Cc1cc(OC)c(OC)c(OC)c1)[N+](C)(CCC(=O)OCCCOC(=O)CC[N+]1(C)CCc3cc(OC)c(OC)cc3[C@H]1Cc1cc(OC)c(OC)c(OC)c1)CC2.O=S(=O)([O-])c1ccccc1.O=S(=O)([O-])c1ccccc1 (some centres not stated) | 100 | 9.75 | 1.08 | 9.83 | 7.58 | 7.92 |  |  |  |  |  | 
20 | COc1cc2c(cc1OC)[C@@H](Cc1cc(OC)c(OC)c(OC)c1)[N+](C)(CCC(=O)OCC(C)(C)COC(=O)CC[N+]1(C)CCc3cc(OC)c(OC)cc3[C@H]1Cc1cc(OC)c(OC)c(OC)c1)CC2 (some centres not stated) | 0 |  |  |  |  |  |  |  |  |  |  | 
21 | COc1cc2c(cc1OC)[C@@H](Cc1cc(OC)c(OC)c(OC)c1)[N+](C)(CCCOC(=O)CC(C)(C)CC(=O)OCCC[N+]1(C)CCc3cc(OC)c(OC)cc3[C@H]1Cc1cc(OC)c(OC)c(OC)c1)CC2.[Cl-].[Cl-] (some centres not stated) | 100 | 21.58 | 1.25 | 12.58 | 18.75 | 9.92 |  |  |  |  |  | 

Source: ChEMBL document CHEMBL5576052, “Design, synthesis, and biological evaluation of new bis-benzylisoquinoline-based analogues as potential neuromuscular blocking agents” (Bioorg Med Chem Lett, 2024)
